Activity calls are given as the source filed them. The rule behind the calls is not given here.
Columns and labels:
[1] = biological target: Human immunodeficiency virus type 1 integrase (Human immunodeficiency virus 1) (UniProt Q7ZJM1); test: Inhibition of HIV1 integrase long terminal repeat cleavage activity at […]
[2] = biological target: Human immunodeficiency virus type 1 integrase (Human immunodeficiency virus 1) (UniProt Q7ZJM1); test: Inhibition of HIV1 integrase strand transfer activity at […]
[3] = biological target: T1, Human immunodeficiency virus type 1 integrase (Human immunodeficiency virus 1, UniProt Q7ZJM1); test: Inhibition of HIV1 integrase long terminal repeat cleavage activity
[4] = biological target: T1, Human immunodeficiency virus type 1 integrase; test: Inhibition of HIV1 integrase strand transfer activity

T1 sequence (Q7ZJM1 whole entry): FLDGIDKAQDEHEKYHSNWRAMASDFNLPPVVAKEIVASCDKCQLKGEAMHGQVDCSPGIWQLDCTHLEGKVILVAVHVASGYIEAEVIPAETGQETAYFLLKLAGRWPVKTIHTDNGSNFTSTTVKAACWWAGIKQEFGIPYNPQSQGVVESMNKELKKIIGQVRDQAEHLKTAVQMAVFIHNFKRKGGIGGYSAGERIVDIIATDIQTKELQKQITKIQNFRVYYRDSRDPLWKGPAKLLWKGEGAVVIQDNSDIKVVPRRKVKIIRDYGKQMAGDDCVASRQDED
Sequence of Human immunodeficiency virus type 1 integrase (Human immunodeficiency virus 1) (Q7ZJM1 as listed by the source): as the sequence (Q7ZJM1 whole entry) above

Row | Activity [1] | Activity [2] | Compound | IC50 [3] | IC50 [4]
1 | inactive | inactive | CCC(C)[C@@H]1NC(=O)c2csc(n2)CNC(=O)c2csc(n2)[C@H](CCC(N)=O)NC(=O)[C@H](CC(C)C)NC(=O)[C@@H]2CCCN2C1=O (some centres undefined) |  | 
2 |  |  | CC(C)C[C@@H]1NC(=O)[C@@H]2CCCN2C(=O)[C@H](C(C)C)NC(=O)c2csc(n2)CNC(=O)c2csc(n2)[C@H](CCC(N)=O)NC1=O [DOLASTATIN 3] | 5 mM | 4.1 mM
